Assay results from article PMC8000041, “New Insights into the Metabolism of the Flavanones Eriocitrin and Hesperidin: A Comparative Human Pharmacokinetic Study” (Antioxidants, 2021).
Where two headings read alike, the source gives them in different places.

How the values were obtained:
[1] = Urinary excretion of flavanone-derived metabolites after single intake of lemon or orange extract (UPLC-ESI-QTOF-MS); format: in vivo, human; details: for Urinary excretion F1: urine fraction 0-4 h; for Urinary excretion F1 / Urinary excretion Total F / Urinary excretion F2 / Urinary excretion F3 / Urinary excretion F4: mean ± SD; for Urinary excretion Total F: sum of fractions F1-F4 (24 h); for Urinary excretion F2: urine fraction 4-8 h; for Urinary excretion F3: urine fraction 8-10 h; for Urinary excretion F4: urine fraction 10-24 h; for Occurrence Urine LE (number of volunteers in whom the metabolite was detected): after consuming lemon extract; for Occurrence Urine LE (number of volunteers in whom the metabolite was detected) / Occurrence Urine OE (number of volunteers in whom the metabolite was detected): n = 16 volunteers; for Occurrence Urine OE (number of volunteers in whom the metabolite was detected): after consuming orange extract
Source text: Secondary endpoints involved the evaluation of post-prandial changes in several biomarkers dealing with metabolism, inflammation, and oxidative stress after a high-fat-high-sugars meal. The design was a randomized pharmacokinetic, double-blind, crossover, single-dose trial consisted of 2 test-phases. The volunteers were randomly allocated into two groups using a computerized random number list. Each group consumed one of the citrus extracts by following a test-phase that lasted for 1 day for blood sampling and urine collection, a 2-week washout period between each test phase, and crossover before consuming the other extract. The volunteers were instructed to avoid the consumption of flavanone-containing products, from a list provided by the researchers, for 1 week before the study and during the wash-out phase (citrus fruit juices, tomatoes, tomato-based sauces (like ‘ketchup’), peppers, almonds, etc.). […] The 3 capsules provided a total of 1.95 g orange extract, containing 260 mg hesperidin, and 3.1 g lemon extract, containing 260 mg eriocitrin. […] Untreated urine samples were aliquoted and frozen at −80 °C for up to 4 weeks until analyses, avoiding freeze-thaw cycles to avoid metabolites’ deconjugation. Moreover, three measurements of blood pressure and heart rate were taken before each time-point of blood withdrawal. […] A previously validated method for analyzing phenolic metabolites in biological samples, including flavanone-derived metabolites, was used. […] After centrifugation at 14,000× g for 10 min at 4 °C, the supernatant was evaporated in a speed vacuum concentrator. Finally, samples were re-suspended in 100 µL of methanol, filtered through a 0.22 µm cellulose filters before analysis by UPLC- ESI-QTOF-MS. […] A targeted screening strategy was applied to identify metabolites that could be present after consuming the citrus extracts. Twenty-eight possible compounds were browsed in all the samples. The list of compounds included the polyphenols present in the extracts, with particular focus on the flavanone rutinosides hesperidin and eriocitrin, their respective aglycones hesperetin, and eriodictyol, as well as their derived phase-II conjugates (glucuronides, sulfates, sulfoglucuronides, etc.). The exact mass of each proposed compound was extracted using an extraction window of 0.01 m/z. The metabolites hesperetin 7-O-glucuronide, hesperetin 3′-O-glucuronide, hesperetin 3-O-sulfate, naringenin 4′-O-glucuronide, and naringenin 7′-O-glucuronide were quantified with their corresponding standards. […] The parent phenolic compounds were quantified with their corresponding standards. In the case of some relevant conjugated metabolites, which standards were not available (eriodictyol and homoeriodictyol conjugates), their quantification was achieved by using relative response factors (RRFs) as previously described. Briefly, RRFs are useful to check the different responses of metabolites in the mass spectrometer vs. their UV signal. While the ionization response of free vs. conjugated forms is usually very different, their UV signal response is quite similar. To this purpose, we injected in a HPLC-DAD-ESI-Q (MS) the plasma samples (n = 5) with the highest concentrations of those conjugated metabolites. Concentrations were calculated by integrating the area from their corresponding UV peaks and compared with the UV peak area of a known concentration of their corresponding available parent compounds (eriodictyol and homoeriodictyol). The concentrations calculated were used to compare the MS response for each conjugated-aglycone pair.

[2] = Plasma metabolites and pharmacokinetics after single intake of lemon or orange extract (UPLC-ESI-QTOF-MS, non-compartmental analysis); format: in vivo, human; details: for Occurrence Plasma LE (number of volunteers in whom the metabolite was detected): after consuming lemon extract; for Occurrence Plasma LE (number of volunteers in whom the metabolite was detected) / Occurrence Plasma OE (number of volunteers in whom the metabolite was detected): n = 16 volunteers; for Occurrence Plasma OE (number of volunteers in whom the metabolite was detected): after consuming orange extract; for Tmax / Cmax / AUC(0-t): mean ± SD; for AUC(0-t): read-out: AUC0-t
Source text: Secondary endpoints involved the evaluation of post-prandial changes in several biomarkers dealing with metabolism, inflammation, and oxidative stress after a high-fat-high-sugars meal. The design was a randomized pharmacokinetic, double-blind, crossover, single-dose trial consisted of 2 test-phases. The volunteers were randomly allocated into two groups using a computerized random number list. Each group consumed one of the citrus extracts by following a test-phase that lasted for 1 day for blood sampling and urine collection, a 2-week washout period between each test phase, and crossover before consuming the other extract. The volunteers were instructed to avoid the consumption of flavanone-containing products, from a list provided by the researchers, for 1 week before the study and during the wash-out phase (citrus fruit juices, tomatoes, tomato-based sauces (like ‘ketchup’), peppers, almonds, etc.). […] The 3 capsules provided a total of 1.95 g orange extract, containing 260 mg hesperidin, and 3.1 g lemon extract, containing 260 mg eriocitrin. […] Plasma samples were obtained by centrifugation of peripheral venous blood at 14,000× g for 15 min at 4 °C and immediately frozen at −80 °C. Glucose, total cholesterol, HDL-cholesterol, LDL-cholesterol, triglycerides, insulin, homeostatic model assessment insulin resistance (HOMA-IR), gamma-glutamyl transferase (GGT), and alanine aminotransferase (ALT) were determined as previously reported. […] A previously validated method for analyzing phenolic metabolites in biological samples, including flavanone-derived metabolites, was used. […] After centrifugation at 14,000× g for 10 min at 4 °C, the supernatant was evaporated in a speed vacuum concentrator. Finally, samples were re-suspended in 100 µL of methanol, filtered through a 0.22 µm cellulose filters before analysis by UPLC- ESI-QTOF-MS. A targeted screening strategy was applied to identify metabolites that could be present after consuming the citrus extracts. Twenty-eight possible compounds were browsed in all the samples. The list of compounds included the polyphenols present in the extracts, with particular focus on the flavanone rutinosides hesperidin and eriocitrin, their respective aglycones hesperetin, and eriodictyol, as well as their derived phase-II conjugates (glucuronides, sulfates, sulfoglucuronides, etc.). The exact mass of each proposed compound was extracted using an extraction window of 0.01 m/z. The metabolites hesperetin 7-O-glucuronide, hesperetin 3′-O-glucuronide, hesperetin 3-O-sulfate, naringenin 4′-O-glucuronide, and naringenin 7′-O-glucuronide were quantified with their corresponding standards. […] The parent phenolic compounds were quantified with their corresponding standards. In the case of some relevant conjugated metabolites, which standards were not available (eriodictyol and homoeriodictyol conjugates), their quantification was achieved by using relative response factors (RRFs) as previously described. Briefly, RRFs are useful to check the different responses of metabolites in the mass spectrometer vs. their UV signal. While the ionization response of free vs. conjugated forms is usually very different, their UV signal response is quite similar. To this purpose, we injected in a HPLC-DAD-ESI-Q (MS) the plasma samples (n = 5) with the highest concentrations of those conjugated metabolites. Concentrations were calculated by integrating the area from their corresponding UV peaks and compared with the UV peak area of a known concentration of their corresponding available parent compounds (eriodictyol and homoeriodictyol). The concentrations calculated were used to compare the MS response for each conjugated-aglycone pair. Statistical analyses were carried out using the SPSS Software, version 23.0 (SPSS Inc., Chicago, IL, USA). Data are expressed as mean ± SD. The empirical distribution of data with the normality assumption was tested with the Shapiro-Wilk test. […]

[3] = lemon extract (3.1 g, 260 mg eriocitrin)
[4] = human, oral, 3.1 g, after lemon extract
[5] = human, oral, 3.1 g, after lemon extract, read-out: Tmax
[6] = orange extract (1.95 g, 260 mg hesperidin)
[7] = human, oral, 1.95 g, after orange (hesperidin) extract

## O=C1CC(c2ccc(O)c(O)c2)Oc2cc(OC3OC(C(=O)O)C(O)C(O)C3O)cc(O)c21 (stereo not drawn) [M1, Eriodictyol glucuronide-1]
[1]; [3]
  Urinary excretion F1: 3.2 ± 5.9 µg/mg creatinine
[1]; lemon extract
  Urinary excretion Total F: 18.0 ± 28.4 µg/mg creatinine
  Urinary excretion F2: 9.6 ± 15.5 µg/mg creatinine
  Urinary excretion F3: 4.5 ± 6.2 µg/mg creatinine
  Urinary excretion F4: 0.7 ± 0.7 µg/mg creatinine
[1]; orange extract
  Urinary excretion Total F: 0.6 ± 0.4 µg/mg creatinine
  Urinary excretion F2: 0.4 ± 0.3 µg/mg creatinine
  Urinary excretion F3: 0.1 ± 0.1 µg/mg creatinine
  Urinary excretion F4: 0.05 ± 0.05 µg/mg creatinine
[1]
  Occurrence Urine LE (number of volunteers in whom the metabolite was detected): 16
  Occurrence Urine OE (number of volunteers in whom the metabolite was detected): 5
[2]
  Occurrence Plasma LE (number of volunteers in whom the metabolite was detected): 16
  Occurrence Plasma OE (number of volunteers in whom the metabolite was detected): 3
[2]; after lemon extract
  Tmax: 5.9 ± 2.4 h
[2]; [4]
  Cmax: 104 ± 85.8 nM
  AUC(0-t): 0.283 ± 0.271 µM·h
[2]; [5]
  Tmax: 6 h

## O=C1CC(c2ccc(O)c(OC3OC(C(=O)O)C(O)C(O)C3O)c2)Oc2cc(O)cc(O)c21 (stereo not drawn) [M2, Eriodictyol glucuronide-2]
[1]; [3]
  Urinary excretion F1: 6.4 ± 11.0 µg/mg creatinine
[1]; lemon extract
  Urinary excretion Total F: 46.6 ± 53.6 µg/mg creatinine
  Urinary excretion F2: 18.0 ± 17.2 µg/mg creatinine
  Urinary excretion F3: 18.1 ± 19.7 µg/mg creatinine
  Urinary excretion F4: 4.2 ± 5.7 µg/mg creatinine
[1]; [6]
  Urinary excretion F1: 0.1 ± 0.1 µg/mg creatinine
[1]; orange extract
  Urinary excretion Total F: 2.5 ± 4.9 µg/mg creatinine
  Urinary excretion F2: 0.5 ± 0.8 µg/mg creatinine
  Urinary excretion F3: 0.5 ± 0.6 µg/mg creatinine
  Urinary excretion F4: 1.4 ± 3.4 µg/mg creatinine
[1]
  Occurrence Urine LE (number of volunteers in whom the metabolite was detected): 16
  Occurrence Urine OE (number of volunteers in whom the metabolite was detected): 10
[2]
  Occurrence Plasma LE (number of volunteers in whom the metabolite was detected): 16
  Occurrence Plasma OE (number of volunteers in whom the metabolite was detected): 7
[2]; after lemon extract
  Tmax: 5.9 ± 2.4 h
[2]; [4]
  Cmax: 871 ± 868 nM
  AUC(0-t): 3.22 ± 4.12 µM·h
[2]; [5]
  Tmax: 6 h

## O=C1CC(c2ccc(O)cc2)Oc2cc(OC3OC(C(=O)O)C(O)C(O)C3O)cc(O)c21 (stereo not drawn) [M3, Naringenin 7-O-glucuronide]
[1]; [3]
  Urinary excretion F1: 1.0 ± 0.7 µg/mg creatinine
[1]; lemon extract
  Urinary excretion Total F: 5.7 ± 6.9 µg/mg creatinine
  Urinary excretion F2: 2.6 ± 4.0 µg/mg creatinine
  Urinary excretion F3: 1.7 ± 1.9 µg/mg creatinine
  Urinary excretion F4: 0.3 ± 0.3 µg/mg creatinine
[1]; [6]
  Urinary excretion F1: 0.1 ± 0.1 µg/mg creatinine
[1]; orange extract
  Urinary excretion Total F: 0.7 ± 1.5 µg/mg creatinine
  Urinary excretion F2: 0.2 ± 0.6 µg/mg creatinine
  Urinary excretion F3: 0.2 ± 0.2 µg/mg creatinine
  Urinary excretion F4: 0.2 ± 0.3 µg/mg creatinine
[1]
  Occurrence Urine LE (number of volunteers in whom the metabolite was detected): 16
  Occurrence Urine OE (number of volunteers in whom the metabolite was detected): 16
[2]
  Occurrence Plasma LE (number of volunteers in whom the metabolite was detected): 16
  Occurrence Plasma OE (number of volunteers in whom the metabolite was detected): 14
[2]; after lemon extract
  Tmax: 5.4 ± 2.5 h
[2]; after orange (hesperidin) extract
  Tmax: 7.3 ± 2.2 h
[2]; [7]
  Cmax: 4.7 ± 3.6 nM
  AUC(0-t): 0.0188 ± 0.019 µM·h
[2]; human, oral, 1.95 g, after orange (hesperidin) extract, read-out: Tmax
  Tmax: 7.5 h
[2]; [4]
  Cmax: 56.7 ± 44.2 nM
  AUC(0-t): 0.203 ± 0.187 µM·h
[2]; [5]
  Tmax: 5.5 h

## O=C1CC(c2ccc(OC3OC(C(=O)O)C(O)C(O)C3O)c(O)c2)Oc2cc(O)cc(O)c21 (stereo not drawn) [M4, Eriodictyol glucuronide-3]
[1]; [3]
  Urinary excretion F1: 9.4 ± 16.9 µg/mg creatinine
[1]; lemon extract
  Urinary excretion Total F: 75.1 ± 128 µg/mg creatinine
  Urinary excretion F2: 33.8 ± 64.1 µg/mg creatinine
  Urinary excretion F3: 27.7 ± 40.1 µg/mg creatinine
  Urinary excretion F4: 4.3 ± 6.4 µg/mg creatinine
[1]; [6]
  Urinary excretion F1: 0.1 ± 0.2 µg/mg creatinine
[1]; orange extract
  Urinary excretion Total F: 3.4 ± 6.2 µg/mg creatinine
  Urinary excretion F2: 0.5 ± 0.9 µg/mg creatinine
  Urinary excretion F3: 0.7 ± 0.7 µg/mg creatinine
  Urinary excretion F4: 2.1 ± 4.5 µg/mg creatinine
[1]
  Occurrence Urine LE (number of volunteers in whom the metabolite was detected): 16
  Occurrence Urine OE (number of volunteers in whom the metabolite was detected): 11
[2]
  Occurrence Plasma LE (number of volunteers in whom the metabolite was detected): 16
  Occurrence Plasma OE (number of volunteers in whom the metabolite was detected): 7
[2]; after lemon extract
  Tmax: 5.9 ± 2.6 h
[2]; [4]
  Cmax: 639 ± 802 nM
  AUC(0-t): 2.29 ± 3.49 µM·h
[2]; [5]
  Tmax: 6 h
